# According to patent US20250134860A1, “NOVEL COMPOUND, AND COMPOSITION FOR PREVENTING, ALLEVIATING OR TREATING BACTERIAL INFLAMMATION AND INFLAMMASOME-MEDIATED DISEASES, COMPRISING SAME AS ACTIVE INGREDIENT” (Quorum Bio Co., Ltd., priority 2022, published 2025):
# Columns and labels:
# [1] = system: A. baumannii; test: Inhibitory effect on biofilm formation in A. baumannii; format: cell-based, Acinetobacter baumannii; conditions: 0.006, 0.06, 0.6 μg/ml; 48 hours; compared with control (CT)
# Protocol: (§1) The inhibitory effect of the compound of Example 1-2 on biofilm formation in P. aeruginosa (available from the Korean Collection for Oral Microbiology (KCOM)) and A. baumannii (available from the Korea Culture Center of Microorganisms (KCCM)) was confirmed.
# (§2) Sterilized cover glass slips (round, 12 mm radius) were placed individually at a bottom of each well of a cell culture plate (24-well plate) using forceps, and the compound of Example 1-2 was diluted in the medium (P. aeruginosa: LB medium, A. baumannii: NB medium) cultured with bacteria so that the final concentrations were 0.006 μg/ml, 0.06 μg/ml, and 0.6 μg/ml.
# (§3) The prepared culture medium was dispensed into a cell culture plate in which glass slips were placed, and the respective bacteria were inoculated to a concentration of 2×10^7 cells/ml. […]
# (§4) The biofilm in which bacteria cultured for each group were formed on glass slips was stained with 1% crystal violet solution for 15 minutes, and then washed three times with PBS (phosphate buffered saline) solution, and decolorized with acetone-alcohol (20:80, vol/vol). After the decolorizing solution containing crystal violet was put in 200 μl increments in a 96-well microplate for each group, the absorbance (OD590nm) was measured using an absorbance microplate reader (Epoch2, Bio-Tek, USA), and the biofilm formation level was compared.
# [2] = system: gingipain genes (rgpA, rgpB, kgp); test: Inhibitory effect on gingipain expression of P. gingivalis (RT-qPCR); format: cell-based, Porphyromonas gingivalis; conditions: DPD 10 μM + compound 2 μM; 48 hours; normalized to 16s rRNA
# Protocol: The compounds of Examples were respectively treated onto the medium cultured with P. gingivalis, and the expression levels of three gingipain proteins (lysine-gingipain (Kgp), arginine-gingipain A (RgpA), and arginine-gingipain B (RgpB)) produced by P. gingivalis, which are major virulence factors and proteolytic enzymes, were confirmed.
# The culture medium containing 10 μM of DPD (4,5-dihydroxy-2,3-pentane dione), which is a precursor of the bacterial signal substance (Autoinducer-2), and the culture medium containing 2 μM of the example compound or not were respectively dispensed into a cell culture plate (48 well plate), and then P. gingivalis (2×10^8 cell/ml) were inoculated for each group. The culture medium cultured with bacteria was cultured at 37° C. under anaerobic conditions (10% H2, 10% CO2, and 80% N2) for 48 hours.
# After 48 hours, each culture medium was centrifuged at 13,000 rpm for 1 minute to remove the supernatant, and total RNA was extracted using easy-BLUE™ Total RNA Extraction kit (iNtRON Biotechnology, Sungnam, Korea) to synthesize cDNA, and then the expression of the gingipain gene was confirmed by real-time PCR method. cDNA was synthesized using AccuPower® CycleScript RT PreMix dN6 (Bioneer, Daejeon, Korea), and real-time (quantitative) reverse transcription PCR (RT-qPCR) was carried out using Power SYBR™ Green PCR Master Mix (Applied Biosystems, Foster City, CA, USA).
# RT-qPCR amplification conditions were as follows: after enzyme activation at 95° C. for 3 minutes, denaturation at 95° C. for 10 seconds and primer annealing at 60° C. for 30 seconds were repeated 40 times, and analysis was performed using a Bio-Rad CFX Connect Real-Time PCR Detection System (Bio-Rad, Hercules, CA, USA). To normalize the expression level of the gingipain gene, the 16s rRNA gene was used, and the gene expression level was calculated using the Comparative Ct Method (ΔΔCt), which is shown in FIGS. 5a to 5c.
# [3] = system: P. aeruginosa; test: Inhibitory effect on biofilm formation in P. aeruginosa; format: cell-based, Pseudomonas aeruginosa; conditions: 0.006, 0.06, 0.6 μg/ml; 48 hours; compared with control (CT)
# Protocol: as §1, §2, §3, §4
# [4] = system: human monocyte cell line (THP-1); test: Cytotoxicity in human monocyte cell line (CCK-8); format: cell-based; conditions: 0.002, 0.02, 0.2, 2 μM, 24 hours, at any concentration
# Protocol: The human monocyte cell line (THP-1) was cultured in a 10% fetal bovine serum (Hyclone, Waltham, MA, USA), and a RPMI 1640 medium supplemented with 2.05 mM L-glutamate and antibiotics (100 units/ml penicillin, 100 μg/ml streptomycin), and then seeded in a 96 well microtiter plate at a concentration of 1×10^5 cells/well. The compound of Example 1-2 was diluted to a final concentration of 0.002 μM, 0.02 μM, 0.2 μM, and 2 μM, cells in each well were treated and cultured for 24 hours. Then, the cultured cells were treated with 10 μl of Cell Counting Kit-8 (CCK-8, DOJINDO, Kumamoto, Japan) solution in each well, and then the absorbance was measured at 450 nm for each time zone (1 h, 2 h, 3 h), and the results were derived based on the absorbance data from the last time zone, 3 h. At this time, the cell viability of untreated cells was set as 100% as the reference, and the cell viability of the cells treated with the sample was calculated and shown in FIG. 19.
compound,measurement,setting,value
"Cc1ccc(C(=C2c3ccccc3C(=O)N2C)c2ccc(C)cc2)cc1 [Example 1-2, 3-(di-p-tolylmethylene)-2-methylisoindolin-1-one]",biofilm formation of A. baumannii,[1],significantly suppressed in a concentration-dependent manner
same,"expression levels of three gingipain genes (rgpA, rgpB, kgp) increased by DPD",[2],reduced
same,biofilm formation of P. aeruginosa,[3],significantly suppressed in a concentration-dependent manner
same,"cytotoxicity (cell viability, CCK-8)",[4],did not exhibit cytotoxicity
